Source: patent publication US20240299400A1, “Transcription Factor GLI1 Inhibitors and Uses Thereof” (University of Connecticut, priority 2023, published 2024)

Key:
DAOY (MB) = assay: MTS anti-proliferative assay in DAOY cells; format: cell-based; conditions: Homo sapiens, Daoy; Table 8, 48 h, mean ± SEM
Method: (§1) Cell viability was assessed by MTS proliferation assay kit (Promega) per manufacturer's protocol. Briefly, 2×10^4 cells were plated in a 96-well plate in 100 μL growth medium to make the cell population at ˜80% confluence. After 24 h, 1 μL drug solution was added to each well. DMSO was used as vehicle compound. After 48 h incubation (37° C., 5% CO2), 20 μL of freshly prepared 3-(4,5-dimethylthiazol-2-yl)-5-(3-carboxymethoxyphenyl)-2-(4-sulfophenyl)-2H-tetrazolium (MTS)/phenazine methosulfate (PMS) solution was added to each well, and the plate was returned to the incubator for 1 h. Absorbance at 490 nm was recorded, and the result was analyzed by GraphPad Prism 5. GI50 values represent mean±SEM for at least two separate experiments performed in triplicate.

GLI1 mRNA expression [1] = assay: RT-qPCR GLI1 mRNA expression in ASZ001 BCC cells; format: cell-based, mouse; conditions: read-out: RT-qPCR, IC50 ASZ001
Method: (§2) ASZ001 and Sufu-KO cells were seeded in 96-well plates (10,000/well, 100 μL) and incubated overnight under growth conditions. On the second day, ‘growth’ media was removed and replaced by ‘assay’ media (100 μL). On the third day, cells were treated with a serial dilution of drugs or DMSO for 48 h. mRNA expression was determined through Taqman Fast Cells-to-CT Kit (#4399003) per the manufacturer's instructions. In brief, cells were washed with chilled PBS, then mixed with lysis solution containing DNase I and incubated at RT for 5 min. Stop solution was then added to quench the lysis reagents. cDNA was then synthesized through a BioRad MyCycler following addition of reverse transcriptase. Finally, the cDNA was amplified through an ABI 7500 system following addition of Taqman Fast Universal PCR Master Mix and Taqman Gene Expression Primer. Relative gene expression levels were computed by the ΔΔCt method. Values represent mRNA expression relative to DMSO control (set at 1.0). Data were analyzed using GraphPad Prism, and IC50 values are the mean±SEM for at least two separate experiments performed in triplicate. Primers used are as follows: mouse ActB (Mm00607939_s1); mouse GLI1 (Mm00494645_ml); mouse Gli2 (Mm01293117_ml); mouse Ptch1 (Mm00436026_ml); mouse Hhip (Mm00469580_ml).

GLI1 mRNA expression [2] = assay: RT-qPCR GLI1 mRNA expression in Sufu-KO MEFs; format: cell-based, mouse; conditions: read-out: RT-qPCR, IC50 Sufu-KO
Method: as §2

PANC-1 (pancreatic) = assay: MTS anti-proliferative assay in PANC-1 cells; format: cell-based; conditions: Homo sapiens, PANC-1; Table 8, 48 h, mean ± SEM
Method: as §1

GLI1-ZFD [3] = target: T1, GLI1-ZFD (Homo sapiens, UniProt P08151); assay: Microscale thermophoresis (MST) binding to GLI1-ZFD
T1 construct: GLI1-ZFD Expression and Purification; made in house
T1 sequence (P08151 234-388 limits assumed): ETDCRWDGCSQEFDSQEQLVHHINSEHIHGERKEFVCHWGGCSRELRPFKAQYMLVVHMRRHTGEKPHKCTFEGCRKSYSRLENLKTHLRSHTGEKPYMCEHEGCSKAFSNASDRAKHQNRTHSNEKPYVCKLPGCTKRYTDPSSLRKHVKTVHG
Method: The protein expression and purification experiments followed the previous reported procedures [C. A. Maschinot, et al., Synthesis and evaluation of third generation vitamin D3 analogues as inhibitors of hedgehog signaling. Euro. J. Med. Chem. 162 (2019) 495-506].
GLI1 protein labeling was performed through the Monolith Protein Labeling Kit RED-NHS 2nd Generation (Nanotemper #MO-LO11) per the manufacturer's instructions. Briefly, GLI1 (100 μg, 1 mg/mL) underwent buffer exchange to remove incompatible ingredients like Tris or DTT. Proteins in the Labeling Buffer were incubated with freshly prepared dye (˜3-fold excess of dye) for 30 min at RT in the dark. Unreacted ‘free’ dye was removed by a gel-filtration column. Protein concentration and degree-of-labeling were calculated by measuring absorption at 280 nm and 650 nm. For each assay, 200 nM GLI1 in MST Buffer was mixed with compound dilution in DMSO (DMSO<5%, v/v). The mixture was then loaded to a capillary and the thermophoresis was subsequently determined through Monolith NT.115 station. Results were analyzed by MO.Affinity Analysis software and visualized by Graphpad Prism. MST Buffer: 50 mM HEPES, pH 8.3, 100 mM NaCl.

ASZ001 cells = assay: MTS anti-proliferative assay in ASZ001 cells; format: cell-based, murine; conditions: Mus musculus, ASZ001, Ave ± SEM
Method: as §1

GLI1-ZFD [4] = target: T1, GLI1-ZFD; assay: Surface plasmon resonance (SPR) binding to GLI1-ZFD; conditions: analyte 100 to 3.125 μM, 1:1 binding fit
Method: SPR studies were performed on a Biacore T200 as a contract service by Creative Biolabs (Shirley, NY, USA), utilizing the same procedure described previously [G. Yernale, A comprehensive review on the biological interest of quinoline and its derivatives. Bioorg. Med. Chem. 32 (2021) 115973]. Briefly, GLI1 protein was immobilized on a Series S CM5 sensor chip (GE Healthcare), and various concentrations of compound 1a/b were injected (flow rate, 30 μL/min) with a contact time of 180 s and dissociation time of 600 s. Kinetic parameters were determined by the Biacore T200 evaluation software.

GLI1 mRNA expression [5] = assay: RT-qPCR GLI1 mRNA expression in OHCs-stimulated C3H10T1/2 MEFs; format: cell-based, mouse; conditions: Table 4, racemates and enantiomers, mean ± SEM; read-out: RT-qPCR, IC50 C3H10T1/2
Method: as §2
C3H10T1/2 MEFs were seeded in 24-well plates (50,000/well, 500 μL). Following 24 h incubation, the ‘growth’ media was removed and replaced with ‘assay’ media (500 μL). On the third day, cells were treated with either DMSO, OHCs, or OHCs+drugs. Following a 24 h incubation, gene expression analysis was carried out following identical protocols as described above.

[6] = Mus musculus, ASZ001, Table 5, GLI1 mRNA, Ave ± SEM
[7] = Mus musculus, Table 5, GLI1 mRNA, Ave ± SEM
[8] = Table 4, racemates and enantiomers, mean ± SEM
[9] = Mus musculus, ASZ001, Table 7, GLI1 mRNA, Ave ± SEM
[10] = Mus musculus, Table 7, GLI1 mRNA, Ave ± SEM

Row | Compound | GI50 (DAOY (MB)) | GI50 (PANC-1 (pancreatic)) | IC50 (GLI1 mRNA expression [1]; [9]) | IC50 (GLI1 mRNA expression [2]; [10]) | GI50 (ASZ001 cells; Table 7, 48 h) | also measured
1 | CCN(CC)c1ccc(CNc2ccccn2)cc1 [Compound 14, N-(4-Diethylaminobenzyl)pyridin-2-amine] | 45.2 ± 7.7 µM | 61.9 ± 9.3 µM |  |  |  | IC50 (GLI1 mRNA expression [1]; [6]): 10 ± 3.2 µM; IC50 (GLI1 mRNA expression [2]; [7]): > 25 µM; Kd (GLI1-ZFD [3]; Table 5, Ave ± SEM): > 125 µM; GI50 (ASZ001 cells; Table 5, 48 h): 34.9 ± 6.1 µM
2 | CCN(CC)c1ccc(C(Nc2ccccn2)c2ccc3ccc(C)nc3c2O)cc1 (single isomer, unassigned) [Compound 1a] |  |  |  |  |  | Ka (GLI1-ZFD [4]; listed as 1a (R)): 171 M⁻¹ s⁻¹; Kd (GLI1-ZFD [4]; listed as 1a (R)): 0.00165 s⁻¹; Rmax (GLI1-ZFD [4]; listed as 1a (R)): 62.84; Kd (GLI1-ZFD [4]; read-out: KD): 9.66 µM; IC50 (GLI1 mRNA expression [1]; Mus musculus, ASZ001, Table 4, racemates and enantiomers, mean ± SEM): 1.8 ± 0.7 µM; IC50 (GLI1 mRNA expression [5]): 0.71 ± 0.26 µM; IC50 (GLI1 mRNA expression [2]; [8]): 1.7 ± 0.6 µM; Kd (GLI1-ZFD [3]; Table 4, mean ± SEM): 12.9 ± 1.6 µM
3 | Cc1ccc2ccc(C(Nc3ccccn3)c3ccc(N4CCCC4)cc3)c(O)c2n1 (centres unmarked) [Compound 43, 7-((4-(Pyrrolidin-1-yl)phenyl)(pyridin-2-ylamino)methyl)-2-methylquinolin-8-ol] | 12.8 ± 1.9 µM | 29.6 ± 5.2 µM | 1.3 ± 0.3 µM | 1.2 ± 0.6 µM | 8.8 ± 2.4 µM | 
4 | Cc1ccc2ccc(C(Nc3ccccn3)c3ccc(N4CCCCC4)cc3)c(O)c2n1 (centres unmarked) [Compound 44, 7-((4-(Piperidin-1-yl)phenyl)(pyridin-2-ylamino)methyl)-2-methylquinolin-8-ol] | 22.6 ± 4 µM | 52.7 ± 5.3 µM | 4 ± 0.8 µM | 4.5 ± 1 µM | 27.7 ± 5.3 µM | 
5 | CS(=O)(=O)c1ccc(C(=O)Nc2ccc(Cl)c(-c3ccccn3)c2)c(Cl)c1 [GDC-0449, reference compound] |  | 80.7 ± 14.2 µM |  |  |  | IC50 (GLI1 mRNA expression [1]; [6]): 0.04 ± 0.01 µM; IC50 (GLI1 mRNA expression [2]; [7]): > 25 µM; GI50 (ASZ001 cells; Table 5, 48 h): 73.6 ± 13.7 µM
6 | Cc1ccc2c(C)cc(C(C)Nc3ccccc3)c(O)c2n1 (centres unmarked) [Compound 33, 2,5-Dimethyl-7-(1-(phenylamino)ethyl)quinolin-8-ol] |  | 56.3 ± 9.4 µM | 7.1 ± 2 µM | 8.8 ± 2.7 µM | 29.5 ± 5.1 µM | 
7 | Cc1ccc2ccc(C(Nc3ccccn3)c3ccccc3)c(O)c2n1 (centres unmarked) [Compound 34, 7-(Phenyl(pyridin-2-ylamino)methyl)-2-methylquinolin-8-ol] | > 100 µM | 94.3 ± 19.5 µM | 21.3 ± 5.2 µM | 7.2 ± 2 µM | > 100 µM | binding to GLI1 (in words) (GLI1-ZFD [3]; MST binding assay): do not bind GLI1; Kd (GLI1-ZFD [3]; Table 7, Ave ± SEM): > 125 µM
8 | Cc1ccc2ccc(C(Nc3ccccn3)c3ccc([N+](=O)[O-])cc3)c(O)c2n1 (centres unmarked) [Compound 40, 7-((4-Nitrophenyl)(pyridin-2-ylamino)methyl)-2-methylquinolin-8-ol] | 75.2 ± 17.4 µM | > 100 µM | 17.3 ± 6.1 µM | 5.6 ± 0.9 µM | 61.8 ± 27.5 µM | 
9 | CCN(CC)c1ccc(C(Nc2ccccn2)c2ccccc2O)cc1 (centres unmarked) [Compound 18, 2-((4-Diethylaminophenyl)(pyridin-2-ylamino)methyl)phenol] |  | > 100 µM |  |  |  | IC50 (GLI1 mRNA expression [1]; [6]): 15.2 ± 5 µM; IC50 (GLI1 mRNA expression [2]; [7]): > 25 µM; Kd (GLI1-ZFD [3]; Table 5, Ave ± SEM): > 125 µM; GI50 (ASZ001 cells; Table 5, 48 h): > 100 µM
10 | CCN(CC)c1ccc(C(Nc2ccccn2)c2ccc3cccnc3c2O)cc1 (centres unmarked) [Compound 15, 7-((4-Diethylaminophenyl)(pyridin-2-ylamino)methyl)quinolin-8-ol] | 8.2 ± 1.6 µM | 10 ± 1.1 µM |  |  |  | IC50 (GLI1 mRNA expression [1]; [6]): 1.4 ± 0.4 µM; IC50 (GLI1 mRNA expression [2]; [7]): 1.1 ± 0.3 µM; GI50 (ASZ001 cells; Table 5, 48 h): 12.2 ± 2 µM
11 | Cc1ccc2ccc(C(Nc3ccccn3)c3ccc(N(C)C)cc3)c(O)c2n1 (centres unmarked) [Compound 42, 7-((4-Dimethylaminophenyl)(pyridin-2-ylamino)methyl)-2-methylquinolin-8-ol] | 18.3 ± 3.6 µM | 45.4 ± 10.3 µM | 1.5 ± 0.6 µM | 1.2 ± 0.3 µM | 10.1 ± 1.8 µM | 
12 | CCN(CC)c1ccc(C(Nc2ccccn2)c2ccc3ccc(C)nc3c2O)cc1 (single isomer, unassigned) [Compound 1b] |  |  |  |  |  | Ka (GLI1-ZFD [4]; listed as 1b (S)): 70.3 M⁻¹ s⁻¹; Kd (GLI1-ZFD [4]; listed as 1b (S)): 0.00131 s⁻¹; Rmax (GLI1-ZFD [4]; listed as 1b (S)): 78.64; Kd (GLI1-ZFD [4]; read-out: KD): 18.7 µM; IC50 (GLI1 mRNA expression [1]; [8]): 1.9 ± 0.6 µM; IC50 (GLI1 mRNA expression [5]): 0.12 ± 0.08 µM; IC50 (GLI1 mRNA expression [2]; [8]): 0.75 ± 0.38 µM; Kd (GLI1-ZFD [3]; Table 4, mean ± SEM): 22.1 ± 4.3 µM
13 | Cc1ccc2ccc(C(Nc3ccccn3)c3ccc(-n4cccc4)cc3)c(O)c2n1 (centres unmarked) [Compound 49, 7-((4-(1H-Pyrrol-1-yl)phenyl)(pyridin-2-ylamino)methyl)-2-methylquinolin-8-ol] |  | > 100 µM | 14.2 ± 2.4 µM | 1.1 ± 0.4 µM | 91.7 ± 21 µM | Kd (GLI1-ZFD [3]; Table 7, Ave ± SEM): 28.5 ± 7.2 µM
14 | Cc1ccc2ccc(C(Nc3ccccn3)c3ccc(N4CCOCC4)cc3)c(O)c2n1 (centres unmarked) [Compound 45, 7-((4-Morpholinophenyl)(pyridin-2-ylamino)methyl)-2-methylquinolin-8-ol] | 24.2 ± 5.8 µM | 61.1 ± 11.5 µM | 2.2 ± 0.8 µM | 1.4 ± 0.4 µM | 18.3 ± 1.5 µM | 
